Reference: PubChem BioAssay AID248 (DTP/NCI, 2004)
“And” between values parts separate entries of the source, which are not always exact repeats. Equal entries are not always repeated. Toxic doses and inconclusive results are not listed. No stated cut-off is given here; in the data, active means T/C of 150% or more; inactive means T/C below 125%.

Tested on: L1210 leukemia ip in BDF1 mice, survival T/C
Experiment: NCI In Vivo Anticancer Drug Screen. Data for tumor model L1210 Leukemia (intraperitoneal) in B6D2F1 (BDF1) mice
Settings: endpoint: mean survival time, higher = longer survival
Method in brief: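 Value reflects the ratio of survival in compound-treated mice to survival in vehicle-treated controls, with both groups carrying the same transplanted tumor.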

[1] = dose: 100.0 mg/kg/injection, schedule: Q01DX001 (ip), vehicle: saline
[2] = dose: 200.0 mg/kg/injection, schedule: Q01DX001 (ip), vehicle: saline
[3] = dose: 100.0 mg/kg/injection, schedule: Q04DX003 (ip), vehicle: saline with Tween-80
[4] = dose: 200.0 mg/kg/injection, schedule: Q04DX003 (ip), vehicle: saline with Tween-80
[5] = dose: 400.0 mg/kg/injection, schedule: Q04DX003 (ip), vehicle: saline with Tween-80
[6] = dose: 100.0 mg/kg/injection, schedule: Q01DX009 (ip), vehicle: Klucel (hydroxypropylcellulose) (HPC)
[7] = dose: 100.0 mg/kg/injection, schedule: Q04DX003 (ip), vehicle: Klucel (hydroxypropylcellulose) (HPC)
[8] = dose: 200.0 mg/kg/injection, schedule: Q01DX009 (ip), vehicle: Klucel (hydroxypropylcellulose) (HPC)
[9] = dose: 200.0 mg/kg/injection, schedule: Q04DX003 (ip), vehicle: Klucel (hydroxypropylcellulose) (HPC)
[10] = dose: 400.0 mg/kg/injection, schedule: Q01DX009 (ip), vehicle: Klucel (hydroxypropylcellulose) (HPC)
[11] = dose: 400.0 mg/kg/injection, schedule: Q04DX003 (ip), vehicle: Klucel (hydroxypropylcellulose) (HPC)
[12] = dose: 50.0 mg/kg/injection, schedule: Q01DX001 (ip), vehicle: carboxymethylcellulose (CMC)
[13] = dose: 100.0 mg/kg/injection, schedule: Q01DX001 (ip), vehicle: carboxymethylcellulose (CMC)
[14] = dose: 200.0 mg/kg/injection, schedule: Q01DX001 (ip), vehicle: carboxymethylcellulose (CMC)
[15] = dose: 400.0 mg/kg/injection, schedule: Q01DX001 (ip), vehicle: carboxymethylcellulose (CMC)
[16] = dose: 50.0 mg/kg/injection, schedule: Q01DX009 (ip), vehicle: saline with Tween-80
[17] = dose: 100.0 mg/kg/injection, schedule: Q01DX009 (ip), vehicle: saline with Tween-80
[18] = dose: 100.0 mg/kg/injection, schedule: Q04DX002 (ip), vehicle: saline
[19] = dose: 200.0 mg/kg/injection, schedule: Q04DX002 (ip), vehicle: saline
[20] = dose: 100.0 mg/kg/injection, schedule: Q01DX001 (ip), vehicle: Klucel (hydroxypropylcellulose) (HPC)
[21] = dose: 200.0 mg/kg/injection, schedule: Q01DX001 (ip), vehicle: Klucel (hydroxypropylcellulose) (HPC)

Measured: T/C

COc1ccc(/C=N\N/C(N)=N\N=C\c2ccc(OC)cc2)cc1
inactive: dose: 15.0 mg/kg/injection, schedule: Q01DX Z (ip), vehicle: carboxymethylcellulose (CMC) 89 % of control | dose: 30.0 mg/kg/injection, schedule: Q01DX Z (ip), vehicle: carboxymethylcellulose (CMC) 97 % of control | dose: 60.0 mg/kg/injection, schedule: Q01DX Z (ip), vehicle: carboxymethylcellulose (CMC) 93 % of control and 101 % of control | dose: 120.0 mg/kg/injection, schedule: Q01DX Z (ip), vehicle: carboxymethylcellulose (CMC) 92 % of control | dose: 240.0 mg/kg/injection, schedule: Q01DX Z (ip), vehicle: carboxymethylcellulose (CMC) 100 % of control | dose: 240.0 mg/kg/injection, schedule: Q01DX Z (oral), vehicle: carboxymethylcellulose (CMC) 107 % of control | dose: 480.0 mg/kg/injection, schedule: Q01DX Z (ip), vehicle: carboxymethylcellulose (CMC) 90 % of control | dose: 480.0 mg/kg/injection, schedule: Q01DX Z (oral), vehicle: carboxymethylcellulose (CMC) 105 % of control | dose: 960.0 mg/kg/injection, schedule: Q01DX Z (oral), vehicle: carboxymethylcellulose (CMC) 104 % of control | dose: 1920.0 mg/kg/injection, schedule: Q01DX Z (oral), vehicle: carboxymethylcellulose (CMC) 102 % of control

CCCCOC(=O)C(C(=O)OCCCC)(C(=O)OCCCC)C(C(=O)OCCCC)(C(=O)OCCCC)C(=O)OCCCC
inactive: dose: 50.0 mg/kg/injection, schedule: Q01DX001 (ip), vehicle: saline 101 % of control | [1] 111 % of control | [2] 104 % of control

Cc1cc(C(=O)O)c(C)cc1C(=O)O
inactive: [3] 98 % of control | [4] 93 % of control | [5] 98 % of control

CCOC(=O)C(=O)Cc1sccc1[N+](=O)[O-]
inactive: [6] 93 % of control | [7] 94 % of control | [8] 94 % of control | [9] 92 % of control | [10] 100 % of control | [11] 100 % of control

CC(=O)NC(CSC(=N)N)C(=O)O (configuration not stated)
inactive: [12] 107 % of control | [13] 98 % of control | [14] 98 % of control | [15] 102 % of control

Cc1ccc(COc2ccc(Cl)cc2Cn2ccnc2)cc1
inactive: dose: 100.0 mg/kg/injection, schedule: Q01DX009 (ip), vehicle: saline 102 % of control

Clc1cc(Cl)c2nc(-c3ccc(Cl)c(Cl)c3)cc(C3CO3)c2c1 (configuration not stated)
inactive: [1] 94 % of control | [2] 105 % of control | dose: 400.0 mg/kg/injection, schedule: Q01DX001 (ip), vehicle: saline 100 % of control

S=c1[nH]c2ccccc2s1
inactive: dose: 25.0 mg/kg/injection, schedule: Q01DX009 (ip), vehicle: saline with Tween-80 94 % of control | [16] 105 % of control | [6] 88 % of control | [17] 109 % of control | [18] 115 % of control | dose: 100.0 mg/kg/injection, schedule: Q04DX003 (ip), vehicle: other 96 % of control | [3] 96 % of control | [8] 100 % of control | [19] 112 % of control | dose: 200.0 mg/kg/injection, schedule: Q04DX003 (ip), vehicle: other 96 % of control | [4] 100 % of control | [10] 95 % of control | dose: 400.0 mg/kg/injection, schedule: Q04DX003 (ip), vehicle: other 101 % of control

COc1ccc(OC)c2c1CC1CC(=O)OC21C (configuration not stated)
inactive: [6] 97 % of control | [7] 97 % of control | [8] 92 % of control | [9] 97 % of control | [10] 97 % of control | [11] 97 % of control

O=C(O)c1c(I)c(I)c(I)c(I)c1C(=O)c1ccccc1
inactive: [16] 103 % of control | [17] 115 % of control | dose: 200.0 mg/kg/injection, schedule: Q01DX009 (ip), vehicle: saline with Tween-80 112 % of control

CCC1(c2ccccc2)CCN(C)C1 (configuration not stated)
inactive: dose: 75.0 mg/kg/injection, schedule: Q01DX001 (ip), vehicle: carboxymethylcellulose (CMC) 93 % of control

CCOC(=O)Cc1ccc(N)cc1
inactive: [20] 104 % of control | [21] 101 % of control

CCC(=O)n1ncc2ccc([N+](=O)[O-])cc21
inactive: [3] 103 % of control | [4] 88 % of control | [5] 93 % of control

COc1ccc(OC)c(CC(C)O)c1 (configuration not stated)
inactive: [13] 101 % of control | [14] 101 % of control | [15] 98 % of control

CN1C(=O)CC(C(=O)CBr)(c2ccccc2)C1=O (configuration not stated)
inactive: dose: 25.0 mg/kg/injection, schedule: Q04DX003 (ip), vehicle: saline with Tween-80 109 % of control | dose: 50.0 mg/kg/injection, schedule: Q04DX003 (ip), vehicle: saline with Tween-80 101 % of control

C/C=C/CC1(CC)C(=O)NC(=O)NC1=O
inactive: dose: 75.0 mg/kg/injection, schedule: Q01DX001 (ip), vehicle: other 98 % of control | dose: 75.0 mg/kg/injection, schedule: Q01DX001 (ip), vehicle: saline 93 % of control | dose: 150.0 mg/kg/injection, schedule: Q01DX001 (ip), vehicle: other 110 % of control | dose: 150.0 mg/kg/injection, schedule: Q01DX001 (ip), vehicle: saline 102 % of control | dose: 300.0 mg/kg/injection, schedule: Q01DX001 (ip), vehicle: other 96 % of control

CCCC(=O)N1CCCC(C)C1 (configuration not stated)
inactive: [18] 111 % of control | [19] 107 % of control | dose: 400.0 mg/kg/injection, schedule: Q04DX002 (ip), vehicle: saline 104 % of control

CN(C)c1nnnn1-c1ccccc1
inactive: dose: 100.0 mg/kg/injection, schedule: Q04DX003 (ip), vehicle: saline 100 % of control | dose: 200.0 mg/kg/injection, schedule: Q04DX003 (ip), vehicle: saline 96 % of control | dose: 400.0 mg/kg/injection, schedule: Q04DX003 (ip), vehicle: saline 105 % of control

CCCCCCCCP(=O)(CCCC)CCCCCCCC
inactive: dose: 25.0 mg/kg/injection, schedule: Q01DX001 (ip), vehicle: saline with Tween-80 100 % of control | dose: 50.0 mg/kg/injection, schedule: Q01DX001 (ip), vehicle: saline with Tween-80 101 % of control | dose: 100.0 mg/kg/injection, schedule: Q01DX001 (ip), vehicle: saline with Tween-80 100 % of control and 104 % of control

COc1cc(C=Nc2ccc(C)c(Cl)c2)ccc1OC(=O)c1ccccc1
inactive: dose: 100.0 mg/kg/injection, schedule: Q04DX002 (ip), vehicle: saline with Tween-80 96 % of control | dose: 200.0 mg/kg/injection, schedule: Q04DX002 (ip), vehicle: saline with Tween-80 93 % of control | dose: 400.0 mg/kg/injection, schedule: Q04DX002 (ip), vehicle: saline with Tween-80 104 % of control

O=C(NC1CC2c3ccccc3C1c1ccccc12)NC1CC2c3ccccc3C1c1ccccc12 (configuration not stated)
inactive: [7] 94 % of control | [9] 89 % of control | [11] 98 % of control

O=S(=O)(Nc1ccccc1)c1ccc([As](=O)(O)O)cc1
inactive: [1] 103 % of control

O=C1C=C(OCc2ccccc2)C(=O)C(OCc2ccccc2)=C1
inactive: [7] 93 % of control | [9] 96 % of control | [11] 95 % of control

Cc1ccc([N+](=O)[O-])cc1NC(=O)N1CCCCC1C (configuration not stated)
inactive: [20] 97 % of control | [6] 106 % of control and 90 % of control | dose: 100.0 mg/kg/injection, schedule: Q04DX002 (ip), vehicle: Klucel (hydroxypropylcellulose) (HPC) 97 % of control and 102 % of control | [7] 100 % of control | [21] 111 % of control | [8] 92 % of control and 97 % of control | dose: 200.0 mg/kg/injection, schedule: Q04DX002 (ip), vehicle: Klucel (hydroxypropylcellulose) (HPC) 97 % of control and 104 % of control | [9] 88 % of control | dose: 400.0 mg/kg/injection, schedule: Q01DX001 (ip), vehicle: Klucel (hydroxypropylcellulose) (HPC) 101 % of control | [10] 108 % of control and 87 % of control | dose: 400.0 mg/kg/injection, schedule: Q04DX002 (ip), vehicle: Klucel (hydroxypropylcellulose) (HPC) 93 % of control and 102 % of control | [11] 104 % of control

COC(=O)CCNS(=O)(=O)c1ccc(C)cc1
inactive: [12] 92 % of control | [13] 94 % of control | [14] 94 % of control | [15] 92 % of control

CCOC(=O)C1=CC2(c3ccccc3)CC1(c1ccccc1)C(c1ccccc1)=C2c1ccccc1 (configuration not stated)
inactive: [12] 97 % of control | [13] 92 % of control | [14] 94 % of control | [15] 89 % of control
